Read-outs that look alike come from different tables or passages of the source.
What was measured:
NTCP = molecular target: T1, NTCP (Homo sapiens, UniProt Q14973); experiment: NTCP uptake of tritium labeled TCA in CHO cells; type: cell-based; details: at 250 μmol/L
T1 construct: host or cells: CHO cells
T1 sequence (Q14973 1-349): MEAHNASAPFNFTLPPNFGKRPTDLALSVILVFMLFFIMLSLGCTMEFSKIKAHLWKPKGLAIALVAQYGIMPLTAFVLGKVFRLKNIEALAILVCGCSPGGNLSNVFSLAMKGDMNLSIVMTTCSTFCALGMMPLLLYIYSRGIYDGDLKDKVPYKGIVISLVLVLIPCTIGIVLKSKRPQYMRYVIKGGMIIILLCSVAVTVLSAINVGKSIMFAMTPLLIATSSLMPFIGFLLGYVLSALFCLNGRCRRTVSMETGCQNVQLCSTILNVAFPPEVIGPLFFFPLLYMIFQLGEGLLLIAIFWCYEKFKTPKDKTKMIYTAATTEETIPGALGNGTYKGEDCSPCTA
Description: […]

[1] = 9-Month Oral Toxicity Study in Cynomolgus Monkeys; type: in vivo, cynomolgus monkey; details: cynomolgus monkey, plasma, oral, 100 mg/kg/day
Procedure: (§1) A 28-day nasogastric toxicity study was conducted in cynomolgus monkeys at up to 100 mg/kg/day and a 9-month oral toxicity study with a 3-month interim sacrifice was conducted in cynomolgus monkeys at up to 100 mg/kg/day.

cynomolgus monkeys = experiment: 9-Month Oral Toxicity Study in Cynomolgus Monkeys; type: in vivo, cynomolgus monkey
Procedure: as §1

For O=C(Cc1ccc(F)cc1)Nn1c(C2CC2)nc2cc(F)ccc2c1=O [PF‐04895162, N‐(2‐cyclopropyl‐7‐fluoro‐4‐oxoquinazolin‐3(4H)‐yl)‐2‐(4‐fluorophenyl)ethanamide], the inhibition at 250 µM (NTCP) was 30%, the Cmax ([1]; both sexes, after 9 months, males and females, read-out: total Cmax) was roughly 29000 ng/mL and the Cmax ([1]; studies >1 month in duration, read-out: total Cmax concentrations in the monkey) was 81.6 µM. For the same molecule, the “hematology, coagulation, clinical chemistry, macroscopic and microscopic pathology” value (cynomolgus monkeys; 9 months, up to 100 mg/kg/day) was “No effect of treatment”, the “body weights, body temperatures, hematology, coagulation, clinical chemistry, ophthalmoscopic, electrocardiographic examinations” value (cynomolgus monkeys; 10, 30 and 100 mg/kg/day) was “No effect of treatment” and the liver weights (cynomolgus monkeys; males at 30 and 100 mg/kg/day, females at 100 mg/kg/day, after 9 months) was “increases in liver weights”. The mortality (cynomolgus monkeys; one female at 100 mg/kg/day) was “found dead on Day 45” and the clinical findings (cynomolgus monkeys; sporadically in a few males and females at 100 mg/kg/day) was “Gross tremors and distended abdomens”.
